Reference: patent publication US20050192371A1, “Preparation and use of photopolymerized microparticles” (priority 1998, published 2005)

Experiments:
[1] = Drug release / degradation of PMSA microparticles in phosphate-buffered saline; assay type: physicochemical; conditions: FIG. 13; tacrine absorbance at 322 nm, Rose Bengal at 550 nm
Method: The centrifuge tube was shaken to disperse the particles throughout the solution and placed in a 37° C. temperature bath for 3 minutes. The tube was then immediately centrifuged, and the buffer was drawn off and analyzed for drug concentration. The centrifuge tube was refilled with 37° C. PBS, and the cycle was repeated for about 3 hours. The tubes remained in the temperature bath for 3 minutes for the first hour, and 5-10 minutes for the remainder of the time data was collected. UV-Vis spectrophotrometry (Model 8452, Hewlett Packard) was used to determine the concentration of tacrine (absorbance was measured at 322 nm) in experiment samples.
Drug release experiments illustrate the release properties of the microparticles formed in the photopolymerization PCA process. […] The Rose Bengal release profile is also affected by photobleaching of particles in room light. This may explain the lag time at the beginning of the Rose Bengal release in FIG. 13.

[2] = Release of Rose Bengal from MSA disks versus mass fraction degraded; assay type: physicochemical; conditions: FIG. 14; homogeneous and heterogeneous MSA disks, 10 ml PBS, 37° C., absorbance 550 nm
From the text: Crosslinked particles containing Rose Bengal were incorporated in a MSA matrix and polymerized into disks. Rose Bengal was also homogeneously incorporated into another set of MSA disks and polymerized. Advantages of using a particle-polymer composite include multi-mode degradation and release possible through the use of different biocompatible polymers and drugs, ease of control of surface degradation, and in one particular application, bone growth is facilitated by the resulting porous structures.
Disk samples were 0.25 to 0.3 grams, 13 mm diameter and 1.5 mm thick. Disks were placed in 10 ml of PBS buffer at 37° C. to monitor the degradation.
The absorbance of Rose Bengal was measured at 550 nm, and the disks were weighed to monitor the degradation.

## O=C([O-])c1c(Cl)c(Cl)c(Cl)c(Cl)c1-c1c2cc(I)c(=O)c(I)c-2oc2c(I)c([O-])c(I)cc12.[Na+].[Na+] [Rose Bengal]
[1]
  release profile from PMSA particles into PBS buffer: some influence of diffusion in the release
[2]
  release behavior as a function of the mass fraction of the disks degraded: linear relationship between degradation and release

## Nc1c2c(nc3ccccc13)CCCC2 [tacrine, 9-amino-1,2,3,4-tetrahydroacridine]
[1]
  release profile from PMSA particles into PBS buffer: follows the curve for surface erosion of a sphere
